Test results as given in patent US20210290153A1, “DRUG DELIVERY DEVICES HAVING ADSORBED MEDICATION ADHERENCE MARKERS THEREON, PACKAGING INCLUDING THE SAME AND METHODS OF FORMING THE SAME” (Xhale, Inc., priority 2018, published 2021).

Settings: maltodextrin-coated vitamin tablet sealed approximately one week with sorbent pad loaded with approximately 200 mg 2-butanol; ingested; breath at approximately 10 minutes after ingestion
Experimental: Referring to FIG. 3, a vitamin tablet was dipped into a maltodextrin/water solution and the tablet was allowed to dry. A tiny sorbent pad loaded with approximately 200 mg of 2-butanol was added to the bottom of a tiny plastic vial to simulate a blister cavity. The dry coated tablet was then added to the vial and sealed via a screw top. After approximately one week, the vial was opened and the tablet was ingested by an individual.

SMILES: CCC(C)O (stereo not shown) [2-butanol]
- 2-butanone, a metabolite of 2-butanol, detected in the individual's breath: significant quantity
